In PMC5037430 (Scientific Reports, 2016) one finds IC50 data, which are given here for 2 compounds.

Read-outs that look alike come from different tables or passages of the source. Bounds are passed on as bounds.

The target of the test is T1, glycolate oxidase (GO); hydroxyacid oxidase 1 (HAO1) (Homo sapiens, UniProt Q9UJM8).
T1 construct: recombinant full-length human HAO1
T1 sequence (Q9UJM8 1-370): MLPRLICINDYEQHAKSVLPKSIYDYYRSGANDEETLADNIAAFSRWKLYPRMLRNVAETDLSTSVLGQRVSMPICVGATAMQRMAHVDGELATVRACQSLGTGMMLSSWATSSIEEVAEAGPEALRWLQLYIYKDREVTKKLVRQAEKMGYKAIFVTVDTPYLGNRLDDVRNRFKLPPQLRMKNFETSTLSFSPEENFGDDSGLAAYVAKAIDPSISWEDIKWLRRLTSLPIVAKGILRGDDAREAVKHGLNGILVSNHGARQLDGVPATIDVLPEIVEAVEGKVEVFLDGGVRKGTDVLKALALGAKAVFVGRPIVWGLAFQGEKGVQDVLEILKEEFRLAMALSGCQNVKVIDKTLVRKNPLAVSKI
Nature of the test: hydrogen peroxide-Amplex red GO enzymatic assay; partial inhibition, less than […] at […]. Type of test: biochemical.

`CC[C@H](NC(=O)c1c(C)c(-c2ccccc2)nc2ccccc12)c1ccccc1` [SB 222200]: the IC50 (read-out: IC50) is greater than 100 µM.

As to `CCCc1nc2c(C)cc(-c3nc4ccccc4n3C)cc2n1Cc1ccc(-c2ccccc2C(=O)O)cc1` [Telmisartan], the concentration for half-maximal inhibition (IC50) was greater than 100 µM.

The IC50 is the concentration needed to halve the response being measured.
